According to patent US9186360B2, “Treatment of respiratory disorders using TRPA1 antagonists” (GLENMARK PHARMACEUTICALS S.A., priority 2011, dated 2015):

Legend:
Format in all cases: cell-based
human TRPV3 = human TRPV3 (Homo sapiens (Human), UniProt Q8NET8); experiment: Radiometric calcium selectivity assay, CHO cells expressing human TRPV3 (2-aminoethoxydiphenyl borate); details: read-out: IC50 values hTRPV3
Experimental: (§1) For selectivity screening, CHO cells stably expressing human TRPV1, human TRPV3, human TRPV4, or human TRPM8 were generated in-house and maintained in DMEM F-12 supplemented with 10% FBS and G418. All the cell types were cultured at 37° C. in humidified air containing 5% CO2. Radiometric calcium assay was performed as described above with some minor modifications. Assay was carried out in total volume of 200 μl at 30° C. (for TRPV1), 32° C. (for TRPV3) and 25° C. (for TRPV4 and TRPM8). Agonists used for selectivity screening of the different TRPs are: Capsaicin for TRPV1,2-aminoethoxydiphenyl borate for TRPV3, 4α-phorbol 12,13-didecanoate for TRPV4 and Icilin for TRPM8. After 2-5 minutes of agonist treatment, drug was washed and lysed in lysis buffer as mentioned above. Radioactivity in the lysate was measured in Packard Top count after addition of liquid scintillant.

human TRPA1 = human TRPA1 (Homo sapiens (Human), UniProt O75762); experiment: 45Calcium uptake assay, AITC induced, human TRPA1 expressing CHO cells; details: AITC 30 micromolar, read-out: IC50 values hTRPA1
Sequence of human TRPA1 (O75762 whole entry): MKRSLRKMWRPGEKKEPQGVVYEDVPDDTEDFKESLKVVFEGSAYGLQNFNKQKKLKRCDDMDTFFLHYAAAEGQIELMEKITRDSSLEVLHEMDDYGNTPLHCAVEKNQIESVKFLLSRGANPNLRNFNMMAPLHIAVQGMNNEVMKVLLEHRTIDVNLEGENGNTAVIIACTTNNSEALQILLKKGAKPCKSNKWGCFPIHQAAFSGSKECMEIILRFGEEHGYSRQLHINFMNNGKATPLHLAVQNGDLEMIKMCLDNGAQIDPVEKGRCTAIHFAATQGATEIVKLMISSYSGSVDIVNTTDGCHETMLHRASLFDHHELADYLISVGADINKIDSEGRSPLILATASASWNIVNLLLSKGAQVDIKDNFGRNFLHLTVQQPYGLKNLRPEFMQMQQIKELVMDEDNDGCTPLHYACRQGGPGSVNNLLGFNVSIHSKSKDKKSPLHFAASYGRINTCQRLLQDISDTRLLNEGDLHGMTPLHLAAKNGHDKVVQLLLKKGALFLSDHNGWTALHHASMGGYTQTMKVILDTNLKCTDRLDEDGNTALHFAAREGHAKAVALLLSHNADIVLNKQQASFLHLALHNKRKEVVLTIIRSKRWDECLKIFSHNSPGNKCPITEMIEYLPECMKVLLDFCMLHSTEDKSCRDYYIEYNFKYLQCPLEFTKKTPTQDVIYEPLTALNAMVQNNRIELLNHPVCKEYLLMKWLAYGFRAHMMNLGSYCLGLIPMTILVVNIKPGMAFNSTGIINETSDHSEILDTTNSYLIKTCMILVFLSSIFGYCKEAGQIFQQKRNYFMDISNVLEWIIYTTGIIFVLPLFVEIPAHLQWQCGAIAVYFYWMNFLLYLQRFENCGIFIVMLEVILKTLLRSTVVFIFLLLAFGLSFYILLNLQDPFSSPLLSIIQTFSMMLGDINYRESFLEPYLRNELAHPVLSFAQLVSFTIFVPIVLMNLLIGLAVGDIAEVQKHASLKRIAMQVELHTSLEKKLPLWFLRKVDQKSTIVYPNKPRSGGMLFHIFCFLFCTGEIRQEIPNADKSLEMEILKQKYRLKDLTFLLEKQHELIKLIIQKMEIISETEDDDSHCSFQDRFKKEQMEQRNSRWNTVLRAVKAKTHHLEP
Experimental: As contemplated herein, the IC50 value is measured by the following method. The inhibition of TRPA1 receptor activation is measured as inhibition of allylisothiocyanate (AITC) induced cellular uptake of radioactive calcium. Test solution of test compound is prepared in a suitable solvent using appropriate method. Human TRPA1 expressing CHO cells are grown in suitable medium. Cells are treated with test compounds followed by addition of AITC. Cells are washed and lysed. Radioactivity in the lysate is measured in Packard Top count after addition of liquid scintillant. The concentration response curves for compounds are plotted as a % of maximal response obtained in the absence of test antagonist, and the IC50 values are calculated from such concentration response curve by nonlinear regression analysis using GraphPad PRISM software.
The illustrative TRPA1 antagonists of the present invention were screened for TRPA1 activity according to a modified procedure described in Tóth, A. et al., Life Sciences 2003, 73, 487-498. The screening of the compounds can be carried out by other methods and procedures known to persons skilled in the art.
Screening for TRPA1 Antagonist Using the 45Calcium Uptake Assay:
The inhibition of TRPA1 receptor activation was measured as inhibition of allylisothiocyanate (AITC) induced cellular uptake of radioactive calcium. Test compounds were dissolved in DMSO to prepare 10 mM stock solution and then diluted using plain medium with 0.1% BSA and 1.8 mM CaCl2 to get desired concentration. Final concentration of DMSO in the reaction was 0.5% (v/v). Human TRPA1 expressing CHO cells were grown in F-12 DMEM medium with 10% FBS, 1% penicillin-streptomycin solution, and 400 μg/ml of G-418. Cells were seeded 24 h prior to the assay in 96 well plates so as to get ˜50,000 cells per well on the day of experiment. Cells were treated with test compounds for 10 min followed by addition of AITC at a final concentration of 30 micromolar and 5 μCi/ml 45Ca+2 for 3 min at 25° C. Cells were washed and lysed using buffer containing 1% Triton X-100, 0.1% deoxycholate and 0.1% SDS. Radioactivity in the lysate was measured in Packard Top count after addition of liquid scintillant.
Concentration response curves were plotted as a % of maximal response obtained in the absence of test antagonist. IC50 value was calculated from concentration response curve by nonlinear regression analysis using GraphPad PRISM software.

human TRPV4 = human TRPV4 (Homo sapiens (Human), UniProt Q9HBA0); experiment: Radiometric calcium selectivity assay, CHO cells expressing human TRPV4 (4α-phorbol 12,13-didecanoate); details: read-out: IC50 values hTRPV4
Sequence of human TRPV4 (Q9HBA0 whole entry): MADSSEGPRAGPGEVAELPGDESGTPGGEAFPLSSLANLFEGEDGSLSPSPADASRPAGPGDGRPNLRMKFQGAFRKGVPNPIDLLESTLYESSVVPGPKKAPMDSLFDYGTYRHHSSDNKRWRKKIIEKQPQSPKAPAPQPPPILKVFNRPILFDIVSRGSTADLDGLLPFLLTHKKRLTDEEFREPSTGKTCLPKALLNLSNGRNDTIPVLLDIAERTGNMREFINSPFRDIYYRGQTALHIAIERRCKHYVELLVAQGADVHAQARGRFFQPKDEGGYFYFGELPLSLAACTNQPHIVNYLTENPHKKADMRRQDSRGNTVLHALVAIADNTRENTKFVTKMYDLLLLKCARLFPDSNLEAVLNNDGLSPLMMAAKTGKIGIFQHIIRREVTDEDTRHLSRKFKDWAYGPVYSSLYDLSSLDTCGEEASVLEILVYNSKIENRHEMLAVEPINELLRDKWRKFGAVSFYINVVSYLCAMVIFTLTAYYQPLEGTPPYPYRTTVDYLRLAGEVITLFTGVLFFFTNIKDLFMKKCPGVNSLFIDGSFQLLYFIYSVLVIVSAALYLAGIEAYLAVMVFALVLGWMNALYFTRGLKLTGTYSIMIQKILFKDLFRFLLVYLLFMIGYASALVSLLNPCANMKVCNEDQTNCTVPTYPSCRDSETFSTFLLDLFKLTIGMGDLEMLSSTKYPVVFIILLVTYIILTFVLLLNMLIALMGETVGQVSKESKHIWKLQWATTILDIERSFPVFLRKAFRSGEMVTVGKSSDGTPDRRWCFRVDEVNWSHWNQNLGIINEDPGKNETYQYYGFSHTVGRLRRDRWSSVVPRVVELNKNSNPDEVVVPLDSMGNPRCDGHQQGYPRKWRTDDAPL
Experimental: as §1

human TRPM8 = human TRPM8 (Homo sapiens (Human), UniProt Q7Z2W7); experiment: Radiometric calcium selectivity assay, CHO cells expressing human TRPM8 (icilin); details: read-out: IC50 values hTRPM8
Sequence of human TRPM8 (Q7Z2W7 whole entry): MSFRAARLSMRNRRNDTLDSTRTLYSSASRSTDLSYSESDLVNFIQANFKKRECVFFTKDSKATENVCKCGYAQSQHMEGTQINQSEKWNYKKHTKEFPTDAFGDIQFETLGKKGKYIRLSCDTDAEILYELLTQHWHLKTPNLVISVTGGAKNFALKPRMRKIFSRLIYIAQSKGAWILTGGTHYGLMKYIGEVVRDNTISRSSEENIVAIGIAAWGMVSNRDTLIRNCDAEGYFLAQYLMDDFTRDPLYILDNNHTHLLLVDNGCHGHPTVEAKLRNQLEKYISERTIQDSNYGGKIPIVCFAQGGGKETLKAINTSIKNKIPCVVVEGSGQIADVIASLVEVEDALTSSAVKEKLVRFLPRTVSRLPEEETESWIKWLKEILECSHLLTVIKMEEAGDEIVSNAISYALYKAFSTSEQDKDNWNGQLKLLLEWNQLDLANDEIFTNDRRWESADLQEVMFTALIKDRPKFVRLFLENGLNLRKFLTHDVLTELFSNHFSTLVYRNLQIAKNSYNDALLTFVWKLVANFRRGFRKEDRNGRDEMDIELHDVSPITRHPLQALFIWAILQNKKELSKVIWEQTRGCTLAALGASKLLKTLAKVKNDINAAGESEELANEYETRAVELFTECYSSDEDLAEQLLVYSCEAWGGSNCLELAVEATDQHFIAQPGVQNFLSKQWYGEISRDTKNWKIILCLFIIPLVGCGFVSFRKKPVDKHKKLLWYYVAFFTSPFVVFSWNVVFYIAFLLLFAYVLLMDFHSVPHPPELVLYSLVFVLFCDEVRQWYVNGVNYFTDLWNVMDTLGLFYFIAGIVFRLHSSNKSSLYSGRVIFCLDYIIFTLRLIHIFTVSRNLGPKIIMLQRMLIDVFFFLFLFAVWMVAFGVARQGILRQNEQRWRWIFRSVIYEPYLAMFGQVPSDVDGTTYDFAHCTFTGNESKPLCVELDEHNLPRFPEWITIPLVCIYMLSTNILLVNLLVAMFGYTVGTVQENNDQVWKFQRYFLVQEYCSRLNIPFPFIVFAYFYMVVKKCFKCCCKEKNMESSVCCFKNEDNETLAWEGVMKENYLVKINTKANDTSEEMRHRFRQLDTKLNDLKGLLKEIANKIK
Experimental: as §1

human TRPV1 = human TRPV1 (Homo sapiens (Human), UniProt Q8NER1); experiment: Radiometric calcium selectivity assay, CHO cells expressing human TRPV1 (capsaicin); details: read-out: IC50 values hTRPV1
Sequence of human TRPV1 (Q8NER1 whole entry): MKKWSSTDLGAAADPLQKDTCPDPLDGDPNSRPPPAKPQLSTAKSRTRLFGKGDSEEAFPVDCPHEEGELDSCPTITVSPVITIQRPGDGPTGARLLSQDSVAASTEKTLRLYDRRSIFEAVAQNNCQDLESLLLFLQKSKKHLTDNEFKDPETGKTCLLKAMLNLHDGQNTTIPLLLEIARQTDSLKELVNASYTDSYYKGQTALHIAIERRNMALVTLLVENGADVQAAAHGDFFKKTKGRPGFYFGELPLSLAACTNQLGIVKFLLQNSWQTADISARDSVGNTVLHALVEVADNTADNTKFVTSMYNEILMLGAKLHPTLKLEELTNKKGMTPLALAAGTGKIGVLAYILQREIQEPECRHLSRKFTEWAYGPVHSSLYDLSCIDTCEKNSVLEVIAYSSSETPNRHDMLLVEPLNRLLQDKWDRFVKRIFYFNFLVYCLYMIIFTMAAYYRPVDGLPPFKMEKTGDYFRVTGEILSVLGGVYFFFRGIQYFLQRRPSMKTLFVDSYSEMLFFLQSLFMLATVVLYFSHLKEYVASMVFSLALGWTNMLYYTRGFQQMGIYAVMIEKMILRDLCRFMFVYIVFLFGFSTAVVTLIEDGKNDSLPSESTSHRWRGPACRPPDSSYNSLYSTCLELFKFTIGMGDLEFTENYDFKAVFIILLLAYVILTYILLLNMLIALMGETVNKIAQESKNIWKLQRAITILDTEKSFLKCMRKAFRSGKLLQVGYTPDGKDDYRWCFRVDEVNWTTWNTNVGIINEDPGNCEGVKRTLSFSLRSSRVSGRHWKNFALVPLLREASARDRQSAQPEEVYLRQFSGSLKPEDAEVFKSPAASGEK
Experimental: as §1

Sequence of human TRPV3 (Q8NET8 whole entry): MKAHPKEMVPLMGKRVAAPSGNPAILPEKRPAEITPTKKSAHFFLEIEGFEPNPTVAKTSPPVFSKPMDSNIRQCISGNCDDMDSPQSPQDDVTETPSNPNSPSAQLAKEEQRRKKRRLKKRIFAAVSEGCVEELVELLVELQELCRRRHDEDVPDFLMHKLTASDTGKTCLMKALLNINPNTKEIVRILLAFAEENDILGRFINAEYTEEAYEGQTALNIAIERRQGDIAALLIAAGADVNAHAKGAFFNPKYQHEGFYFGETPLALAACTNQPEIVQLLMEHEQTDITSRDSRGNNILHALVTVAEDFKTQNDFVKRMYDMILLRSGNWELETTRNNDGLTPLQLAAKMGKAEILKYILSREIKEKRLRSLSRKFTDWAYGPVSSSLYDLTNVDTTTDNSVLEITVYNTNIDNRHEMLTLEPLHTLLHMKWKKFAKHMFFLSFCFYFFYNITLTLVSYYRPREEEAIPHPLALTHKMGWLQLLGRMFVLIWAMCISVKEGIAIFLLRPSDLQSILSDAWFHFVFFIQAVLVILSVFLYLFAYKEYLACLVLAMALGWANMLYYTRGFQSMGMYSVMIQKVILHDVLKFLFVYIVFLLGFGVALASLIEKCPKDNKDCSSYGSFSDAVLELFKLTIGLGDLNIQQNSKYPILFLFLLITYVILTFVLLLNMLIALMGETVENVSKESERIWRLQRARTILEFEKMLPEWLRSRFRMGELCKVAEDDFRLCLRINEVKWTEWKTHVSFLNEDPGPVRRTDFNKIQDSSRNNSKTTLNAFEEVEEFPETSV

Row | SMILES | IC50 (human TRPV3) | IC50 (human TRPA1) | IC50 (human TRPV4) | IC50 (human TRPM8) | IC50 (human TRPV1)
1 | Cn1c(=O)c2c(CC(=O)Nc3nc(-c4cc(F)c(C(F)(F)F)c(F)c4)cs3)cccc2n(C)c1=O [Compound 33] | > 10000 nM | 5.37 nM | < 1000 nM | > 10000 nM | > 10000 nM
2 | Cn1c(=O)c2c(CC(=O)Nc3ccn(-c4ccc(Cl)cc4)n3)cccc2n(C)c1=O [Compound 8] | > 10000 nM | 55 nM | > 1000 nM | > 10000 nM | > 10000 nM
3 | Cn1c(=O)c2c(cnn2CC(=O)Nc2nc(-c3ccc(OCC(C)(C)C)c(F)c3)cs2)n(C)c1=O [Compound 45] | > 1000 nM | 26.4 nM | > 1000 nM | > 10000 nM | > 10000 nM
4 | Cn1c(=O)c2c(CC(=O)Nc3nc(-c4ccc(F)c(OC(F)(F)F)c4)cs3)c(Cl)oc2n(C)c1=O [Compound 103] | – | 27.4 nM | 4020 nM | – | –
5 | Cn1c(=O)c2c(CC(=O)Nc3nc(-c4ccc(C(F)(F)F)c(F)c4)cs3)ccnc2n(C)c1=O [Compound 85] | > 1000 nM | 8.92 nM | 620 nM | > 10000 nM | > 10000 nM
6 | Cn1c(=O)c2c(CC(=O)Nc3nc(-c4ccc(Cl)c(Cl)c4)cs3)cccc2n(C)c1=O [Compound 4] | > 10000 nM | 98.3 nM | > 1000 nM | > 10000 nM | > 10000 nM
7 | CC(C)CCOc1ccc(-c2csc(NC(=O)Cc3cccc4c3c(=O)n(C)c(=O)n4C)n2)cc1 [Compound 22] | > 10000 nM | 79.8 nM | > 1000 nM | > 10000 nM | > 10000 nM
8 | Cn1c(=O)c2c(CC(=O)Nc3nc(-c4cc(F)cc(C(F)(F)F)c4)cs3)c(Cl)oc2n(C)c1=O [Compound 100] | – | 5.15 nM | > 10000 nM | – | –
9 | Cc1oc2c(c1CC(=O)Nc1nc(-c3ccc(F)c(C(F)(F)F)c3)cs1)c(=O)n(C)c(=O)n2C [Compound 69] | > 1000 nM | 7.1 nM | > 1000 nM | > 10000 nM | > 10000 nM
10 | Cc1oc2c(c1CC(=O)Nc1nc(-c3ccc(C(F)(F)F)c(F)c3F)cs1)c(=O)n(C)c(=O)n2C [Compound 76] | 2500 nM | 4.02 nM | 8920 nM | > 10000 nM | 8010 nM
11 | Cn1c(=O)c2c(CC(=O)Nc3nc(-c4ccc(C(F)(F)F)cc4F)cs3)cccc2n(C)c1=O [Compound 19] | > 1000 nM | 26.1 nM | 1630 nM | > 10000 nM | > 10000 nM
12 | Cc1oc2c(c1CC(=O)Nc1nc(-c3cccc(C(F)(F)F)c3F)cs1)c(=O)n(C)c(=O)n2C [Compound 67] | > 1000 nM | 13.6 nM | > 10000 nM | > 10000 nM | > 10000 nM
13 | Cc1sc2c(c1CC(=O)Nc1nc(-c3ccc(Cl)c(Cl)c3)cs1)c(=O)n(C)c(=O)n2C [Compound 47] | > 10000 nM | 33.6 nM | > 1000 nM | > 10000 nM | > 10000 nM
14 | Cn1c(=O)c2c(CC(=O)Nc3nc(-c4ccc(C(F)(F)F)cc4F)cs3)nsc2n(C)c1=O [Compound 78] | > 1000 nM | 10.6 nM | 153 nM | > 10000 nM | > 10000 nM
15 | Cn1c(=O)c2c(CC(=O)Nc3nc(-c4ccc(Br)cc4)cs3)cccc2n(C)c1=O [Compound 3] | > 10000 nM | 73.3 nM | 969 nM | > 10000 nM | > 10000 nM
16 | CC(C)c1ccc(-c2csc(NC(=O)Cc3cccc4c3c(=O)n(C)c(=O)n4C)n2)cc1 [Compound 14] | > 1000 nM | 60.4 nM | > 1000 nM | > 10000 nM | > 10000 nM
17 | Cn1c(=O)c2c(CC(=O)Nc3nc(-c4ccc(OC(F)F)c(Cl)c4)cs3)cccc2n(C)c1=O [Compound 30] | > 10000 nM | 34 nM | > 10000 nM | > 10000 nM | > 10000 nM

Row | SMILES | IC50 (human TRPV3) | IC50 (human TRPA1) | IC50 (human TRPV4) | IC50 (human TRPM8) | IC50 (human TRPV1)
18 | Cn1c(=O)c2c(CC(=O)Nc3nc(-c4cc(Cl)ccc4F)cs3)cccc2n(C)c1=O [Compound 24] | > 1000 nM | 138 nM | > 10000 nM | > 10000 nM | > 10000 nM
19 | Cn1c(=O)c2c(CC(=O)Nc3nc(-c4ccc(F)c(C(F)(F)F)c4)cs3)coc2n(C)c1=O [Compound 58] | > 1000 nM | 11.9 nM | > 1000 nM | > 10000 nM | > 10000 nM
20 | CC(C)COc1c(F)cc(-c2csc(NC(=O)Cc3coc4c3c(=O)n(C)c(=O)n4C)n2)cc1F [Compound 53] | > 10000 nM | 18.2 nM | > 1000 nM | > 10000 nM | > 10000 nM
21 | Cc1oc2c(c1CC(=O)Nc1nc(-c3ccc(OCC(F)(F)F)c(Cl)c3)cs1)c(=O)n(C)c(=O)n2C [Compound 74] | > 10000 nM | 5.29 nM | > 10000 nM | > 10000 nM | > 10000 nM
22 | Cn1c(=O)c2c(CC(=O)Nc3nc(-c4ccc(C(F)(F)F)c(F)c4)cs3)c(Cl)oc2n(C)c1=O [Compound 99] | – | 5.06 nM | 1470 nM | – | –
23 | Cn1c(=O)c2c(CC(=O)Nc3nc(-c4ccc(C(F)(F)F)c(F)c4)cs3)cccc2n(C)c1=O [Compound 18] | > 10000 nM | 13.4 nM | 1320 nM | > 10000 nM | > 10000 nM
24 | Cn1c(=O)c2c(CC(=O)Nc3nc(-c4cccc(C(F)(F)F)c4F)cs3)nsc2n(C)c1=O [Compound 79] | > 1000 nM | 5.29 nM | 826 nM | > 10000 nM | > 10000 nM
25 | Cn1c(=O)c2c(CC(=O)Nc3nc(-c4ccc(C5CCCCC5)cc4)cs3)cccc2n(C)c1=O [Compound 10] | > 10000 nM | 46.7 nM | > 10000 nM | > 10000 nM | > 10000 nM
26 | Cc1oc2c(c1CC(=O)Nc1nc(-c3cc(F)cc(C(F)(F)F)c3)cs1)c(=O)n(C)c(=O)n2C [Compound 61] | > 10000 nM | 2.93 nM | > 10000 nM | > 10000 nM | > 10000 nM
27 | Cn1c(=O)c2c(cnn2CC(=O)Nc2nc(-c3cc(F)c(OCC(C)(C)C)c(Cl)c3)cs2)n(C)c1=O [Compound 42] | > 10000 nM | 11.4 nM | > 10000 nM | > 10000 nM | > 10000 nM
28 | Cn1c(=O)c2c(CC(=O)Nc3nc(-c4ccc(OC(F)(F)F)c(F)c4)cs3)ccnc2n(C)c1=O [Compound 88] | > 1000 nM | 11.4 nM | 158 nM | > 10000 nM | > 10000 nM
29 | CCc1sc2c(c1CC(=O)Nc1nc(-c3cc(F)c(OCC(F)(F)F)c(F)c3)cs1)c(=O)n(C)c(=O)n2C [Compound 49] | > 10000 nM | 3.98 nM | > 10000 nM | > 10000 nM | > 10000 nM
30 | CCC(=N\O)/C(C)=C/c1ccc(F)cc1 [Compound 89] | > 10000 nM | – | > 10000 nM | > 10000 nM | > 10000 nM
31 | Cn1c(=O)c2c(CC(=O)Nc3nc(-c4ccc(OC(F)(F)F)c(F)c4)cs3)c(Cl)oc2n(C)c1=O [Compound 102] | – | 7.67 nM | 1350 nM | – | –
32 | Cn1c(=O)c2c(CC(=O)Nc3nc(-c4ccc(F)c(C(F)(F)F)c4F)cs3)c(Cl)oc2n(C)c1=O [Compound 101] | – | 10.1 nM | > 1000 nM | – | –
33 | Cn1c(=O)c2c(CC(=O)Nc3nc(-c4ccc(C(F)(F)F)c(F)c4F)cs3)c(Cl)oc2n(C)c1=O [Compound 104] | – | 7.58 nM | 1810 nM | – | –
